Test results published in patent US20220184055A1, “CHIAURANIB FOR TREATMENT OF SMALL CELL LUNG CANCER” (SHENZHEN CHIPSCREEN BIOSCIENCES CO., LTD., priority 2019, published 2022).
“Also recorded” adds a separate entry of the source.

How the values were obtained:
SCLC = settings: combined with best supportive treatment; cited from earlier work
advanced solid tumors = assay: Phase I clinical trial of chiauranib in patients with advanced solid tumors; assay type: in vivo, human; settings: for objective remission (complete remission CR and partial remission PR): 18 patients, 8 tumor types, oral once daily 10-65 mg dose escalation, RECIST 1.1
Description: Test drug: chiauranib capsules, strength: 5 mg, 25 mg, produced by Shenzhen Chipscreen Biosciences, Co., Ltd.
Dosage regimen: The starting dose was 10 mg/day. After the starting dose, according to the modified Fibonacci method, the patients were enrolled in order from low dose to high dose, and the set dose groups were 20 mg, 35 mg, 50 mg, 65 mg . . . dose groups, respectively, until the MTD was determined.
Chiauranib capsules were administered orally, once a day in the morning. Before knowing the analysis data of the effects of food on bioavailability, the drugs were administered on empty stomach.
Number of cases: 18 cases were enrolled.
The prescribed dose of Chiauranib capsules was administered orally on empty stomach once every day, and every 28 days was a treatment cycle; there was no stopping interval during the treatment cycles, and all enrolled patients received the test drug treatment until the disease progressed or intolerable toxicity appeared.
Efficacy evaluation: The clinical benefits of tumor treatment include:
Judgment criteria: The efficacy was evaluated according to the RECIST version 1.1 (2009) standard of solid tumors.
Safety assessment: physical examination, vital signs, ECOG physical score, blood routine, urine routine, 12-lead ECG, blood biochemistry, electrolytes, coagulation function, myocardial enzymes, troponin, TSH, FT3, FT4, amylase, echocardiography, 24-hour urine protein quantification (if necessary), and adverse events were included.
A total of 18 patients were enrolled in the trial, all of which were included in the FAS, SS, and PPS analysis sets. Among the 18 patients, 7 cases (38.9%) had colorectal cancer, 5 cases (27.8%) had non-small cell lung cancer, and 1 case each for gastric cancer, ovarian cancer, thyroid papillary carcinoma, diffuse large B-cell lymphoma, fibrosarcoma, and poorly differentiated renal carcinoma.

[1] = system: recurrent and refractory small cell lung cancer; assay: Phase Ib clinical trial of chiauranib alone in recurrent and refractory small cell lung cancer; assay type: in vivo, human; settings: 50 mg/day QD oral
Description: Test drug: Chiauranib capsules, strength: 5 mg, 25 mg, produced by Shenzhen Chipscreen Biosciences, Co., Ltd.
Dosage regimen: Chiauranib capsules were administered at 50 mg/day, QD (no adjustments to body weight or body surface area), on an empty stomach every morning with water, swallowing whole capsules intact. Continuous administration for 28 days constituted a treatment cycle, and there was no interval between treatment cycles.
Number of cases: 25 cases were enrolled.
The test subjects were administered with 50 mg of Chiauranib capsules orally once a day, every 28 days as a treatment cycle, and there was no stopping interval during the treatment cycles. Throughout the trial period, all subjects continued treatment until any of the following conditions (whichever occurred first) occurred: disease progression, intolerable toxic response, death, withdrawal of informed consent, or loss to follow-up.
Efficacy evaluation: According to the RECIST1.1 standard, evaluation was performed in the baseline period and at the 4th weekend after treatment, and repeated every 8 weeks until the disease progressed. Tumor imaging examinations include CT or MRI of the neck, chest, whole abdomen, and pelvis. Examinations of other parts were carried out when necessary based on clinical indications. The same techniques and methods should be employed for the baseline of the lesion and follow-up assessment and measurement.
Safety assessment: physical examination, vital signs, ECOG fitness score, blood routine, urine routine, 12-lead ECG blood biochemistry, electrolytes, coagulation function, myocardial enzymes, troponin, TSH, FT3, FT4, amylase, echocardiography, 24-hour urine protein quantification (if necessary), and adverse events were included.

[2] = 20 patients with efficacy evaluation

Structure (SMILES) | overall survival, quality of life and improvement of symptoms versus best supportive treatment alone (SCLC) | PR, number of patients (advanced solid tumors; 8 common tumors, 18 patients evaluated) | objective remission (complete remission CR and partial remission PR) (advanced solid tumors) | objective remission (complete remission CR and partial remission PR) (advanced solid tumors; listed as Chiauranib) | objective response rate (ORR) / PR (%) [1, 2] [%] | patients whose target lesions were reduced by more than 30% from baseline, number [1, 2] [patients] | patients whose target lesions were reduced by more than 30% from baseline, percent [1, 2] [%] | best efficacy evaluation PR, number of patients ([1]; 20 patients with efficacy evaluation of 25 enrolled, RECIST 1.1) [patients]
CC[C@@]1(O)C(=O)OCc2c1cc1n(c2=O)Cc2cc3c(CN(C)C)c(O)ccc3nc2-1 [topotecan] | significantly better |  |  |  |  |  |  | 
COc1ccc2c(Oc3ccc4c(C(=O)Nc5ccccc5N)cccc4c3)ccnc2c1 [chiauranib, N-(2-aminophenyl)-6-(7-methoxyquinoline-4-oxo)-1-naphthylamide] |  | 0 | no objective remission was observed; also recorded: no patients with objective remission were observed | no cases with objective remission were observed | 20 | 5 | 25 | 4
